Experimental data as given in ChEMBL document CHEMBL4376806, “Antibiotic Adjuvants: Make Antibiotics Great Again!” (2019).
Values after ≈ are worked out from the molar mass of the structure shown.

What was measured:
[1] = target: Beta-lactamase (Staphylococcus aureus) (UniProt P00807); settings: 01A400
Bacteroides fragilis = settings: 78C004
[2] = test system: Staphylococcus epidermidis; settings: 01B116
Haemophilus influenzae = settings: 54A042
Escherichia coli [3] = experiment: Potentiation of erythromycin-induced antibacterial activity against Escherichia coli W3110 assessed as erythromycin MIC at 64 ug/ml after 20 hrs by liquid microdilution method (reference value: 64 ug/ml); assay type: functional; settings: K-12 substr. W3110, 20 h
Escherichia coli [4] = experiment: Potentiation of novobiocin-induced antibacterial activity against Escherichia coli W3110 assessed as novobiocin MIC at 64 ug/ml after 20 hrs by liquid microdilution method (reference value: 128 ug/ml); assay type: functional; settings: K-12 substr. W3110, 20 h
[5] = target: Beta-lactamase CTX-M-27 (Escherichia coli) (UniProt Q840M4); experiment: Inhibition of beta-lactamase CTX-M-27 in Escherichia coli (EC113) ST 131 assessed as potentiation of ceftriaxone-induced antibacterial activity by measuring ceftriaxone MIC at 10 ug/ml incubated for 18 hrs by CLSI based broth microtitre dilution method (Rvb >32 ug/ml)
[6] = target: Beta-lactamase CTX-M-27 (Escherichia coli) (UniProt Q840M4); experiment: Inhibition of beta-lactamase CTX-M-27 in Escherichia coli (EC113) ST 131 assessed as potentiation of aztreonam-induced antibacterial activity by measuring aztreonam MIC at 10 ug/ml incubated for 18 hrs by CLSI based broth microtitre dilution method (Rvb >16 ug/ml)
[7] = target: Beta-lactamase CTX-M-27 (Escherichia coli) (UniProt Q840M4); experiment: Inhibition of beta-lactamase CTX-M-27 in Escherichia coli (EC113) ST 131 assessed as potentiation of ceftazidime-induced antibacterial activity by measuring ceftazidime MIC at 10 ug/ml incubated for 18 hrs by CLSI based broth microtitre dilution method (reference value: 8 ug/ml)
[8] = target: Beta-lactamase CTX-M-27 (Escherichia coli) (UniProt Q840M4); experiment: Inhibition of beta-lactamase CTX-M-27 in Escherichia coli (EC113) ST 131 assessed as potentiation of ampicillin-induced antibacterial activity by measuring ampicillin MIC at 10 ug/ml incubated for 18 hrs by CLSI based broth microtitre dilution method (Rvb >16 ug/ml)
[9] = target: Beta-lactamase CTX-M-27 (Escherichia coli) (UniProt Q840M4); experiment: Inhibition of beta-lactamase CTX-M-27 in Escherichia coli (EC113) ST 131 assessed as potentiation of cefepime-induced antibacterial activity by measuring cefepime MIC at 10 ug/ml incubated for 18 hrs by CLSI based broth microtitre dilution method (Rvb >32 ug/ml)
[10] = target: Beta-lactamase CTX-M-27 (Escherichia coli) (UniProt Q840M4); experiment: Inhibition of beta-lactamase CTX-M-27 in Escherichia coli (EC113) ST 131 assessed as potentiation of cefazolin-induced antibacterial activity by measuring cefazolin MIC at 10 ug/ml incubated for 18 hrs by CLSI based broth microtitre dilution method (Rvb >16 ug/ml)
[11] = target: Beta-lactamase CTX-M-27 (Escherichia coli) (UniProt Q840M4); experiment: Inhibition of beta-lactamase CTX-M-27 in Escherichia coli (EC113) ST 131 assessed as potentiation of piperacillin-induced antibacterial activity by measuring piperacillin MIC at 10 ug/ml incubated for 18 hrs by CLSI based broth microtitre dilution method (Rvb >64 ug/ml)
Staphylococcus aureus [12] = experiment: Potentiation of neomycin-induced antibacterial activity against Staphylococcus aureus 358 assessed as neomycin MIC at 64 ug/ml after 24 hrs by broth microdilution assay (reference value: 156.2 ug/ml); assay type: functional; settings: Staphylococcus aureus, 358, 24 h
Staphylococcus aureus [13] = experiment: Potentiation of gentamicin-induced antibacterial activity against Staphylococcus aureus 358 assessed as gentamicin MIC at 64 ug/ml after 24 hrs by broth microdilution assay (reference value: 312.5 ug/ml); assay type: functional; settings: Staphylococcus aureus, 358, 24 h
Escherichia coli [14] = experiment: Potentiation of amikacin-induced antibacterial activity against Escherichia coli 27 assessed as amikacin MIC at 64 ug/ml after 24 hrs by broth microdilution assay (reference value: 156.2 ug/ml); assay type: functional; settings: Escherichia coli, 27, 24 h
Escherichia coli [15] = experiment: Potentiation of neomycin-induced antibacterial activity against Escherichia coli 27 assessed as neomycin MIC at 64 ug/ml after 24 hrs by broth microdilution assay (reference value: 312.5 ug/ml); assay type: functional; settings: Escherichia coli, 27, 24 h
Pseudomonas aeruginosa [16] = experiment: Potentiation of amikacin-induced antibacterial activity against Pseudomonas aeruginosa 03 assessed as amikacin MIC at 32 ug/ml after 24 hrs by broth microdilution assay (reference value: 312.5 ug/ml); assay type: functional; settings: Pseudomonas aeruginosa, 03, 24 h
Pseudomonas aeruginosa [17] = experiment: Potentiation of gentamicin-induced antibacterial activity against Pseudomonas aeruginosa 03 assessed as gentamicin MIC at 32 ug/ml after 24 hrs by broth microdilution assay (reference value: 625 ug/ml); assay type: functional; settings: Pseudomonas aeruginosa, 03, 24 h
Escherichia coli [18] = experiment: Potentiation of gentamicin-induced antibacterial activity against Escherichia coli 27 assessed as gentamicin MIC at 64 ug/ml after 24 hrs by broth microdilution assay (reference value: 625 ug/ml); assay type: functional; settings: Escherichia coli, 27, 24 h
Staphylococcus aureus [19] = experiment: Potentiation of amikacin-induced antibacterial activity against Staphylococcus aureus 358 assessed as amikacin MIC at 64 ug/ml after 24 hrs by broth microdilution assay (reference value: 156.2 ug/ml); assay type: functional; settings: Staphylococcus aureus, 358, 24 h
[20] = test system: MexAB/OprM (Pseudomonas aeruginosa (strain ATCC 15692 / DSM 22644 / CIP 104116 / JCM14847 / LMG 12228 / 1C / PRS 101 / PAO1)), P52477+P52002+Q51487 [UNDEFINED MUTATION]; experiment: Inhibition of MexAB/OprM nalB mutant in Pseudomonas aeruginosa PAO1 K1455 assessed as potentiation of tetracycline-induced antibacterial activity by measuring tetracycline MIC at 20 ug/ml incubated for 18 hrs by CLSI based broth microtitre dilution method (reference value: 64 ug/ml)
[21] = test system: MexAB/OprM (Pseudomonas aeruginosa (strain ATCC 15692 / DSM 22644 / CIP 104116 / JCM14847 / LMG 12228 / 1C / PRS 101 / PAO1)), P52477+P52002+Q51487 [UNDEFINED MUTATION]; experiment: Inhibition of MexAB/OprM nalB mutant in Pseudomonas aeruginosa PAO1 K1455 assessed as potentiation of rifampin-induced antibacterial activity by […] at 20 ug/ml incubated for 18 hrs by CLSI based broth microtitre dilution method (reference value: 16 ug/ml)
[22] = test system: MexAB/OprM (Pseudomonas aeruginosa (strain ATCC 15692 / DSM 22644 / CIP 104116 / JCM14847 / LMG 12228 / 1C / PRS 101 / PAO1)), P52477+P52002+Q51487 [UNDEFINED MUTATION]; experiment: Inhibition of MexAB/OprM nalB mutant in Pseudomonas aeruginosa PAO1 K1455 assessed as potentiation of cefotaxime-induced antibacterial activity by measuring cefotaxime MIC at 20 ug/ml incubated for 18 hrs by CLSI based broth microtitre dilution method (reference value: 64 ug/ml)
[23] = test system: MexAB/OprM (Pseudomonas aeruginosa (strain ATCC 15692 / DSM 22644 / CIP 104116 / JCM14847 / LMG 12228 / 1C / PRS 101 / PAO1)), P52477+P52002+Q51487 [UNDEFINED MUTATION]; experiment: Inhibition of MexAB/OprM nalB mutant in Pseudomonas aeruginosa PAO1 K1455 assessed as potentiation of erythromycin-induced antibacterial activity by measuring erythromycin MIC at 20 ug/ml incubated for 18 hrs by CLSI based broth microtitre dilution method (reference value: 256 ug/ml)
[24] = test system: MexAB/OprM (Pseudomonas aeruginosa (strain ATCC 15692 / DSM 22644 / CIP 104116 / JCM14847 / LMG 12228 / 1C / PRS 101 / PAO1)), P52477+P52002+Q51487 [UNDEFINED MUTATION]; experiment: Inhibition of MexAB/OprM nalB mutant in Pseudomonas aeruginosa PAO1 K1455 assessed as potentiation of novobiocin-induced antibacterial activity by measuring novobiocin MIC at 20 ug/ml incubated for 18 hrs by CLSI based broth microtitre dilution method (Rvb > 2048 ug/ml)
[25] = test system: MexAB/OprM (Pseudomonas aeruginosa (strain ATCC 15692 / DSM 22644 / CIP 104116 / JCM14847 / LMG 12228 / 1C / PRS 101 / PAO1)), P52477+P52002+Q51487 [UNDEFINED MUTATION]; experiment: Inhibition of MexAB/OprM nalB mutant in Pseudomonas aeruginosa PAO1 K1455 assessed as potentiation of levofloxacin-induced antibacterial activity by measuring levofloxacin MIC at 20 ug/ml incubated for 18 hrs by CLSI based broth microtitre dilution method (reference value: 2 ug/ml)

## CC1(C)[C@H](C(=O)O)N2C(=O)C[C@H]2S1(=O)=O
[1]
  MIC: 1.56 mg/L (≈ 6.69 µM)
Bacteroides fragilis
  MIC: 3.12 mg/L (≈ 13.4 µM)
[2]
  MIC: 1.56 mg/L (≈ 6.69 µM)
Haemophilus influenzae
  MIC: 1.56 mg/L (≈ 6.69 µM)

## Cl.Cl.Cl.Cl.NCCCNCCCCNCCCNC(=O)Cc1cccc2ccccc12
Escherichia coli [3]
  MIC: 4 mg/L
Escherichia coli [4]
  MIC: 1 mg/L

## NCc1ccc(C(=O)N[C@H]2Cc3cccc(C(=O)O)c3O[B-]2(O)O)cc1
[5]
  MIC: < 0.5 mg/L
[6]
  MIC: < 1 mg/L
[7]
  MIC: < 1 mg/L
[8]
  MIC: < 8 mg/L
[9]
  MIC: < 4 mg/L
[10]
  MIC: 4 mg/L
[11]
  MIC: < 16 mg/L

## CC1=CC(=O)c2ccccc2C1=O [MENADIONE]
Staphylococcus aureus [12]
  MIC: 2.4 mg/L
Staphylococcus aureus [13]
  MIC: 2.4 mg/L
Escherichia coli [14]
  MIC: 2.4 mg/L
Escherichia coli [15]
  MIC: 2.4 mg/L
Pseudomonas aeruginosa [16]
  MIC: 2.4 mg/L
Pseudomonas aeruginosa [17]
  MIC: 2.4 mg/L
Escherichia coli [18]
  MIC: 2.4 mg/L
Staphylococcus aureus [19]
  MIC: 2.4 mg/L

## C[C@H]1[C@H]2CC[C@H]3[C@@H]4CC=C5C[C@@H](N(C)C)CC[C@]5(C)[C@H]4CC[C@]23CN1C
[20]
  MIC: 8 mg/L
[21]
  MIC: 2 mg/L
[22]
  MIC: 8 mg/L
[23]
  MIC: 32 mg/L
[24]
  MIC: 256 mg/L
[25]
  MIC: 0.25 mg/L
